This experiment has as its target IL-17RA/IL17RC dimerization induced by IL-17A (Homo sapiens, UniProt Q16552). Kind of experiment: IL-17RA/IL17RC dimerization assay in response to IL-17A (PathHunter Cytokine Receptor Assay). The class given is cell-based. Particulars: IL-17A at EC80; read-out: IC50 in IL-17RA/IL7RC dimerization assay. A digest of the protocol:
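Receptor dimerization was read as chemiluminescence from complemented β-galactosidase after IL-17A at EC80 concentration for 6–16 h at 37 °C. Peptides were added 60 min before agonist, at 37 °C or room temperature, with 1% vehicle. Percent inhibition used the EC80-stimulated and vehicle wells as references.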

SMILES strings stand for the structures. pIC50: −log10 of the molar value. Residues, ends and D or L forms follow the SMILES beside them.

Sequence of IL-17RA/IL17RC dimerization induced by IL-17A (Q16552 24-155): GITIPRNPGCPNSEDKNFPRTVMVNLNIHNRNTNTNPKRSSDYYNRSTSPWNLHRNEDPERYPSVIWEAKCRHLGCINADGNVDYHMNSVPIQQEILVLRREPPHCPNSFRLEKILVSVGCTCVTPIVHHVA

Take `CC[C@H](C)[C@H](NC(=O)[C@@H](NC(=O)[C@@H](NC(=O)[C@H](Cc1c[nH]cn1)NC(=O)[C@@H](NC(C)=O)C(C)C)C(C)C)[C@@H](C)O)C(=O)N1CCC[C@H]1C(=O)N[C@@H](C)C(=O)N[C@@H](CC(=O)O)C(=O)N[C@@H](Cc1ccccc1)C(=O)N[C@@H](Cc1c[nH]c2ccccc12)C(=O)N[C@@H](CCC(=O)O)C(=O)N[C@@H](Cc1c[nH]c2ccccc12)C(=O)N[C@H](C(=O)N[C@@H](CCCNC(=N)N)C(=O)N[C@@H](CCCNC(=N)N)C(N)=O)C(C)C` [SEQ ID NO: 117] (Ac-VHVTIPADFWEWVRR-NH2): the pIC50 is > 6.30.
As for `CC(=O)N[C@H](C(=O)N[C@@H](Cc1c[nH]cn1)C(=O)N[C@@H](Cc1ccccc1)C(=O)N[C@H](C(=O)N[C@@H](Cc1ccccc1)C(=O)N1CCC[C@H]1C(=O)N[C@@H](CCC(N)=O)C(=O)N[C@@H](CC(=O)O)C(=O)N[C@@H](Cc1ccccc1)C(=O)N[C@@H](Cc1c[nH]c2ccccc12)C(=O)N[C@@H](CCC(=O)O)C(=O)N[C@@H](Cc1c[nH]c2ccccc12)C(=O)N[C@H](C(=O)N[C@@H](CCCNC(=N)N)C(=O)N[C@@H](CCCNC(=N)N)C(N)=O)C(C)C)[C@@H](C)O)C(C)C` [SEQ ID NO: 125] (Ac-VHFTFPQDFWEWVRR-NH2), the figure is > 6.30; as for `CC(=O)N[C@H](C(=O)N[C@@H](Cc1c[nH]cn1)C(=O)N[C@@H](Cc1ccccc1)C(=O)N[C@H](C(=O)N[C@@H](Cc1ccccc1)C(=O)N1CCC[C@H]1C(=O)N[C@@H](CCC(N)=O)C(=O)N[C@@H](CC(=O)O)C(=O)N[C@@H](CC(C)C)C(=O)N[C@@H](Cc1ccc(O)cc1)C(=O)N[C@@H](CC(N)=O)C(=O)N[C@@H](Cc1ccccc1)C(=O)N[C@H](C(=O)N[C@@H](CCCNC(=N)N)C(=O)N[C@@H](CCCNC(=N)N)C(N)=O)C(C)C)[C@@H](C)O)C(C)C` [SEQ ID NO: 148] (Ac-VHFTFPQDLYNFVRR-NH2), > 6.30; as for `CC(=O)N[C@H](C(=O)N[C@@H](Cc1c[nH]cn1)C(=O)N[C@@H](Cc1ccccc1)C(=O)N[C@@H](CCC(N)=O)C(=O)N[C@@H](Cc1ccccc1)C(=O)N1CCC[C@H]1C(=O)N[C@@H](CCC(N)=O)C(=O)N[C@@H](CC(=O)O)C(=O)N[C@@H](Cc1c[nH]c2ccccc12)C(=O)N[C@@H](Cc1ccc(O)cc1)C(=O)N[C@@H](CCC(=O)O)C(=O)N[C@@H](Cc1c[nH]c2ccccc12)C(=O)N[C@H](C(=O)N[C@@H](CCCNC(=N)N)C(=O)N[C@@H](CCCNC(=N)N)C(N)=O)C(C)C)C(C)C` [SEQ ID NO: 138] (Ac-VHFQFPQDWYEWVRR-NH2), > 6.30.
For `CC[C@H](C)[C@H](NC(=O)[C@H](Cc1c[nH]c2ccccc12)NC(=O)[C@H](CC(=O)O)NC(=O)[C@H](Cc1c[nH]c2ccccc12)NC(=O)[C@H](CC(C)C)NC(=O)[C@H](CC(=O)O)NC(=O)[C@H](C)NC(=O)[C@@H]1CCCN1C(=O)[C@H](CC(C)C)NC(=O)[C@H](Cc1ccc(O)cc1)NC(=O)[C@@H](NC(=O)[C@H](CCCNC(=N)N)NC(=O)[C@@H](NC(C)=O)C(C)C)[C@@H](C)CC)C(=O)N[C@@H](CC(N)=O)C(=O)N[C@@H](CCCCN)C(N)=O` [SEQ ID NO: 245] (Ac-VRIYLPADLWDWINK-NH2), the pIC50 was > 5.00.
Turning to `CC[C@H](C)[C@H](NC(C)=O)C(=O)N[C@@H](Cc1c[nH]cn1)C(=O)N[C@H](C(=O)N[C@@H](CCC(N)=O)C(=O)N[C@H](C(=O)N1CCC[C@H]1C(=O)N[C@@H](C)C(=O)N[C@@H](CC(=O)O)C(=O)N[C@@H](CC(C)C)C(=O)N[C@@H](Cc1c[nH]c2ccccc12)C(=O)N[C@@H](CC(=O)O)C(=O)N[C@@H](Cc1c[nH]c2ccccc12)C(=O)N[C@H](C(=O)N[C@@H](CC(N)=O)C(=O)N[C@@H](CCCCN)C(N)=O)[C@@H](C)CC)[C@@H](C)CC)C(C)C` [SEQ ID NO: 178] (Ac-IHVQIPADLWDWINK-NH2), the pIC50 is > 5.00.
As for `CC(=O)N[C@H](C(=O)N[C@@H](Cc1c[nH]cn1)C(=O)N[C@@H](Cc1ccccc1)C(=O)N[C@H](C(=O)N[C@@H](Cc1ccccc1)C(=O)N1CCC[C@H]1C(=O)N[C@@H](CCC(N)=O)C(=O)N[C@@H](CC(=O)O)C(=O)N[C@@H](CC(C)C)C(=O)N[C@@H](Cc1ccc(O)cc1)C(=O)N[C@@H](CC(N)=O)C(=O)N[C@@H](Cc1c[nH]c2ccccc12)C(=O)N[C@H](C(=O)N[C@@H](CCCNC(=N)N)C(=O)N[C@@H](CCCNC(=N)N)C(N)=O)C(C)C)[C@@H](C)O)C(C)C` [SEQ ID NO: 147] (Ac-VHFTFPQDLYNWVRR-NH2), the figure is > 6.30.
Regarding `CC[C@H](C)[C@H](NC(=O)[C@H](Cc1c[nH]c2ccccc12)NC(=O)[C@H](CC(=O)O)NC(=O)[C@H](Cc1c[nH]c2ccccc12)NC(=O)[C@H](CC(C)C)NC(=O)[C@H](CC(=O)O)NC(=O)[C@H](C)NC(=O)[C@@H]1CCCN1C(=O)[C@@H](NC(=O)[C@H](Cc1ccc(O)cc1)NC(=O)CNC(=O)[C@H](CCCNC(=N)N)NC(=O)[C@@H](NC(C)=O)C(C)C)C(C)C)C(=O)N[C@@H](CC(N)=O)C(=O)N[C@@H](CCCCN)C(N)=O` [SEQ ID NO: 242] (Ac-VRGYVPADLWDWINK-NH2), the pIC50 was > 5.00.
Take `CC(=O)N[C@H](C(=O)N[C@@H](Cc1c[nH]cn1)C(=O)N[C@@H](Cc1ccccc1)C(=O)N[C@H](C(=O)N[C@@H](Cc1ccccc1)C(=O)N1CCC[C@H]1C(=O)N[C@@H](CCC(N)=O)C(=O)N[C@@H](CC(=O)O)C(=O)N[C@@H](CC(C)C)C(=O)N[C@@H](Cc1c[nH]c2ccccc12)C(=O)N[C@@H](CCC(=O)O)C(=O)N[C@@H](Cc1c[nH]c2ccccc12)C(=O)N[C@@H](Cc1ccccc1)C(=O)N[C@@H](CCCNC(=N)N)C(=O)N[C@@H](CCCNC(=N)N)C(N)=O)[C@@H](C)O)C(C)C` [SEQ ID NO: 129] (Ac-VHFTFPQDLWEWFRR-NH2): the pIC50 was > 6.30.
In the case of `CC[C@H](C)[C@H](NC(C)=O)C(=O)N[C@@H](Cc1c[nH]cn1)C(=O)N[C@H](C(=O)N[C@H](C(=O)N[C@H](C(=O)N1CCC[C@H]1C(=O)N[C@@H](CC(C)C)C(=O)N[C@@H](CCC(=O)O)C(=O)N[C@H](C(=O)N[C@@H](Cc1ccccc1)C(=O)N[C@@H](CCC(=O)O)C(=O)N[C@@H](Cc1c[nH]c2ccccc12)C(=O)N[C@@H](CC(C)C)C(=O)N[C@@H](CCC(N)=O)C(=O)N[C@@H](Cc1c[nH]cn1)C(N)=O)C(C)C)[C@@H](C)CC)[C@@H](C)O)C(C)C` [SEQ ID NO: 249] (Ac-IHVTIPLEVFEWLQH-NH2), the pIC50 was > 5.00.
As for `CC[C@H](C)[C@H](NC(C)=O)C(=O)N[C@@H](Cc1c[nH]cn1)C(=O)N[C@H](C(=O)N[C@H](C(=O)N[C@H](C(=O)N1CCC[C@H]1C(=O)N[C@@H](CC(C)C)C(=O)N[C@@H](CC(=O)O)C(=O)N[C@@H](CC(C)C)C(=O)N[C@@H](Cc1c[nH]c2ccccc12)C(=O)N[C@@H](CC(=O)O)C(=O)N[C@@H](Cc1c[nH]c2ccccc12)C(=O)N[C@H](C(=O)N[C@@H](CC(N)=O)C(=O)N[C@@H](CCCCN)C(N)=O)[C@@H](C)CC)[C@@H](C)CC)[C@@H](C)O)C(C)C` [SEQ ID NO: 193] (Ac-IHVTIPLDLWDWINK-NH2), the pIC50 was > 5.00.
As for `CC[C@H](C)[C@H](NC(C)=O)C(=O)N[C@@H](Cc1c[nH]cn1)C(=O)N[C@H](C(=O)N[C@H](C(=O)N[C@H](C(=O)N1CCC[C@H]1C(=O)NCC(=O)N[C@@H](CC(=O)O)C(=O)N[C@@H](CC(C)C)C(=O)N[C@@H](Cc1c[nH]c2ccccc12)C(=O)N[C@@H](CC(=O)O)C(=O)N[C@@H](Cc1c[nH]c2ccccc12)C(=O)N[C@H](C(=O)N[C@@H](CC(N)=O)C(=O)N[C@@H](CCCCN)C(N)=O)[C@@H](C)CC)[C@@H](C)CC)[C@@H](C)O)C(C)C` [SEQ ID NO: 192] (Ac-IHVTIPGDLWDWINK-NH2), the pIC50 was > 5.00.
Turning to `CC(=O)N[C@H](C(=O)N[C@@H](Cc1c[nH]cn1)C(=O)N[C@@H](Cc1ccccc1)C(=O)N[C@@H](CCC(N)=O)C(=O)N[C@@H](Cc1ccccc1)C(=O)N1CCC[C@H]1C(=O)N[C@@H](CCC(N)=O)C(=O)N[C@@H](CCC(=O)O)C(=O)N[C@@H](Cc1c[nH]c2ccccc12)C(=O)N[C@@H](Cc1ccc(O)cc1)C(=O)N[C@@H](CC(N)=O)C(=O)N[C@@H](Cc1c[nH]c2ccccc12)C(=O)N[C@@H](Cc1ccccc1)C(=O)N[C@@H](CCCNC(=N)N)C(=O)N[C@@H](CCCNC(=N)N)C(N)=O)C(C)C` [SEQ ID NO: 154] (Ac-VHFQFPQEWYNWFRR-NH2), the pIC50 was > 6.30.
With `CC[C@H](C)[C@H](NC(=O)[C@H](Cc1c[nH]c2ccccc12)NC(=O)[C@H](CC(=O)O)NC(=O)[C@H](Cc1c[nH]c2ccccc12)NC(=O)[C@H](CC(C)C)NC(=O)[C@H](CC(=O)O)NC(=O)[C@H](C)NC(=O)[C@@H]1CCCN1C(=O)[C@@H](NC(=O)[C@@H](NC(=O)[C@@H](NC(=O)[C@H](Cc1c[nH]cn1)NC(=O)[C@H](C)NC(C)=O)C(C)C)[C@@H](C)O)[C@@H](C)CC)C(=O)N[C@@H](CC(N)=O)C(=O)N[C@@H](CCCCN)C(N)=O` [SEQ ID NO: 158] (Ac-AHVTIPADLWDWINK-NH2), the pIC50 was > 5.00.
`CC[C@H](C)[C@H](NC(C)=O)C(=O)N[C@@H](Cc1c[nH]cn1)C(=O)N[C@H](C(=O)N[C@H](C(=O)N[C@H](C(=O)N1CCC[C@H]1C(=O)N[C@@H](C)C(=O)N[C@@H](CC(=O)O)C(=O)N[C@@H](CC(C)C)C(=O)N[C@@H](Cc1c[nH]c2ccccc12)C(=O)N[C@@H](CC(=O)O)C(=O)N[C@@H](Cc1c[nH]c2ccccc12)C(=O)N1CCC[C@H]1C(=O)N[C@@H](CC(N)=O)C(=O)N[C@@H](CCCCN)C(N)=O)[C@@H](C)CC)[C@@H](C)O)C(C)C` [SEQ ID NO: 217] (Ac-IHVTIPADLWDWPNK-NH2): the pIC50 was > 5.00.
Take `CC[C@H](C)[C@H](NC(C)=O)C(=O)N[C@@H](Cc1c[nH]cn1)C(=O)N[C@H](C(=O)N[C@H](C(=O)N[C@H](C(=O)N[C@H](C(=O)N[C@@H](C)C(=O)N[C@@H](CC(=O)O)C(=O)N[C@@H](CC(C)C)C(=O)N[C@@H](Cc1c[nH]c2ccccc12)C(=O)N[C@@H](CC(=O)O)C(=O)N[C@@H](Cc1c[nH]c2ccccc12)C(=O)N[C@H](C(=O)N[C@@H](CC(N)=O)C(=O)N[C@@H](CCCCN)C(N)=O)[C@@H](C)CC)[C@@H](C)CC)[C@@H](C)CC)[C@@H](C)O)C(C)C` [SEQ ID NO: 190] (Ac-IHVTIIADLWDWINK-NH2): the pIC50 was > 5.00.
